For series [1], the system named is HCV. The following applies: combination therapy; cited from earlier work.
Series [2] concerns genotype 1b (Con-1) HCV replicon in Huh-7 cells. Put plainly: HCV replicon luciferase assay. In kind it is cell-based. The following applies: 1b replicon, Huh-7, Renilla luciferase, 3 days incubation. The gist of the method:
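Huh-7 cells carrying Con-1 genotype 1b replicon with Renilla luciferase reporter seeded onto titrated compound in DMEM, 4% FBS, 0.5% DMSO, 3 days at 37 °C. Luciferase read with EnduRen substrate (7.5 μM final) after ≥1 h; EC50 by four-parameter logistic fit.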
In general terms: In antiviral work, replicon cells carry a viral genome segment that copies itself.

Series [3] has as its target T1, NS5B proteins of HCV genotype 1b (Con1) (Hepatitis C virus genotype 1b, UniProt Q9WMX2).
T1 construct: Each untagged protein was expressed with an 18 amino acid C-terminal truncation to enhance the solubility; made in house; host or cells: E. coli BL21(DE3), pET21a
Briefly: HCV NS5B RdRp enzyme assay. To be noted: 1b enzyme. In kind it is biochemical. Summed up: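 Untagged NS5B (C-terminal 18-aa truncation) in an on-bead scintillation-proximity format: poly A template (0.36 nM), biotin-dT12 primer (15 nM), 0.29 μM ³H-UTP, 7 nM enzyme, 20 mM Hepes pH 7.5, 2.5 mM MgCl2. Reactions ran 4–24 h at 30 °C (24 h runs with 24 h enzyme–inhibitor preincubation), stopped with EDTA. IC50 from ten concentrations, four-parameter logistic fit.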

The subject of series [4] is HCV. To be noted: cited from earlier work.

T1 sequence (Q9WMX2 2420-2992): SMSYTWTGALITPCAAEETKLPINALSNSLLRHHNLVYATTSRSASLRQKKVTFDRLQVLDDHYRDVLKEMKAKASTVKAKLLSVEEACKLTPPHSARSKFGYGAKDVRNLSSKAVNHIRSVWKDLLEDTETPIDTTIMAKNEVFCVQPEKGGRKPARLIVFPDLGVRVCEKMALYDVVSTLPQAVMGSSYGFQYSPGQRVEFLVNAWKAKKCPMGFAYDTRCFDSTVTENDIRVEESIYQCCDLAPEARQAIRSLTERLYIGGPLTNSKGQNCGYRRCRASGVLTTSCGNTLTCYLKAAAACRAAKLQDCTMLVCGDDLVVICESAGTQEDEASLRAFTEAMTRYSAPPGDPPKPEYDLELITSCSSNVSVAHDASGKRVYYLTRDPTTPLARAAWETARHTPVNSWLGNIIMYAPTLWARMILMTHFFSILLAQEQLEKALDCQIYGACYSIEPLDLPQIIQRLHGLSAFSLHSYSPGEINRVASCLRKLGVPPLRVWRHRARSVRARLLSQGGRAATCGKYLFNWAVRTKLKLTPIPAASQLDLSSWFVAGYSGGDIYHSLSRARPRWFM

With alpha-interferon and ribavirin, the “sustained efficacy, share of patients” value in the series on HCV [1] is on record as 40%.

Take `CNC(=O)c1c(-c2ccc(F)cc2)oc2cc(NCC(F)(F)F)c(-c3cccc(C(=O)NC4(c5ncccn5)CC(OC(F)F)C4)c3)cc12` (single isomer, unassigned) [Example 65b]: it took 4.23 nM to reach a half-maximal effect in series [2] (EC50). Moreover, half-maximal inhibition in series [3] (IC50) was put at 4.73 nM.

For the compound `CNC(=O)c1c(-c2ccc(F)cc2)oc2ccc(-c3cc(C(=O)NC4(c5ncccn5)CC(OC)C4)ccc3C)c(F)c12` (single isomer, unassigned) [Example 10b, 4-Fluoro-2-(4-fluorophenyl)-5-(5-((3-methoxy-1-(pyrimidin-2-yl)cyclobutyl)carbamoyl)-2-methylphenyl)-N-methylbenzofuran-3-carboxamide], the concentration giving a half-maximal response (EC50) (as a rule, the concentration at which the effect is half-maximal) in series [2] came out at 4.43 nM. Besides, it took 10 nM to reach half-maximal inhibition in series [3] (IC50).

As for `CNC(=O)c1c(-c2ccc(F)cc2)oc2ccc(-c3cc(C(=O)NC4(c5ncccn5)CC(F)(F)C4)ccc3C)c(F)c12` [Example 15, 5-(5-((3,3-Difluoro-1-(pyrimidin-2-yl)cyclobutyl)carbamoyl)-2-methylphenyl)-4-fluoro-2-(4-fluorophenyl)-N-methylbenzofuran-3-carboxamide], in series [2] (Hepatitis C virus, Huh-7, 72 h), a half-maximal response (EC50) required 30 nM. For the same compound, the concentration for half-maximal inhibition (IC50) (commonly the concentration at which inhibition is half-maximal) in series [3] amounted to 30 nM.

`CNC(=O)c1c(-c2ccc(F)cc2)oc2cc(CCC(F)(F)F)c(-c3cccc(C(=O)NC4(c5ncccn5)CC(OC(F)(F)F)C4)c3)cc12` (single isomer, unassigned) [Example 45a, 2-(4-Fluorophenyl)-N-methyl-5-(3-((1-(pyrimidin-2-yl)-3-(trifluoromethoxy)cyclobutyl)carbamoyl)phenyl)-6-(3,3,3-trifluoropropyl)benzofuran-3-carboxamide] came in with an EC50 in series [2] of 20 nM. For the same compound, in series [3], 20 nM corresponded to half-maximal inhibition (IC50).

Consider `CNC(=O)c1c(-c2ccc(F)cc2)oc2cc(CCC(F)(F)F)c(-c3ccc(F)c(C(=O)NC4(c5ncccn5)CC(OC(F)F)C4)c3)cc12` (stereo not shown) [Example 42, 5-(3-((3-(Difluoromethoxy)-1-(pyrimidin-2-yl)cyclobutyl)carbamoyl)-4-fluorophenyl)-2-(4-fluorophenyl)-N-methyl-6-(3,3,3-trifluoropropyl)benzofuran-3-carboxamide], for which, in series [2] (Hepatitis C virus, Huh-7, 72 h), the midpoint of the response, the EC50, lay at 5.73 nM. Besides, the IC50 in series [3] turned out to be 7.6 nM.

As for `CNC(=O)c1c(-c2ccc(F)cc2)oc2cc(CCC(F)(F)F)c(-c3ccc(OC)c(C(=O)NC4(c5ncccn5)CC(OC(F)F)C4)c3)cc12` (stereo not shown) [Example 43, 5-(3-((3-(Difluoromethoxy)-1-(pyrimidin-2-yl)cyclobutyl)carbamoyl)-4-methoxyphenyl)-2-(4-fluorophenyl)-N-methyl-6-(3,3,3-trifluoropropyl)benzofuran-3-carboxamide], the EC50 in series [2] (Hepatitis C virus, Huh-7, 72 h) worked out at 5.6 nM. Besides, half-maximal inhibition in series [3] (IC50) was put at 10 nM.

Turning to `CCCc1cc2oc(-c3ccc(F)cc3)c(C(=O)NC)c2cc1-c1cccc(C(=O)NC2(c3ncccn3)CC(OC(F)(F)F)C2)c1` (stereo not shown) [Example 44, 2-(4-Fluorophenyl)-N-methyl-6-propyl-5-(3-((1-(pyrimidin-2-yl)-3-(trifluoromethoxy)cyclobutyl)carbamoyl)phenyl)benzofuran-3-carboxamide], the response in series [2] (Hepatitis C virus, Huh-7, 72 h) was half-maximal at 9.51 nM (EC50). The IC50 in series [3] is 5.87 nM.

Regarding `CNC(=O)c1c(-c2ccc(F)cc2)oc2ccc(-c3cc(C(=O)NC4(c5ncccn5)CC(OC)C4)cc(F)c3C)c(F)c12` (single isomer, unassigned) [Example 11a, 4-Fluoro-5-(3-fluoro-5-((3-methoxy-1-(pyrimidin-2-yl)cyclobutyl)carbamoyl)-2-methylphenyl)-2-(4-fluorophenyl)-N-methylbenzofuran-3-carboxamide], the EC50 in series [2] came out at 40 nM. The compound further displayed an IC50 in series [3] of 90 nM.

Regarding `CCOc1cc2oc(-c3ccc(F)cc3)c(C(=O)NC)c2cc1-c1cccc(C(=O)NC2(c3ncccn3)CC(OC(F)F)C2)c1` (single isomer, unassigned) [Example 67b, 5-(3-((3-(Difluoromethoxy)-1-(pyrimidin-2-yl)cyclobutyl)carbamoyl)phenyl)-6-ethoxy-2-(4-fluorophenyl)-N-methylbenzofuran-3-carboxamide], in series [2], the midpoint of the response, the EC50, lay at 6.8 nM. The compound also displayed a half-maximal inhibitory concentration (IC50) in series [3] of 2.11 nM.

With `CNC(=O)c1c(-c2ccc(F)cc2)oc2cc(N(CCO)S(C)(=O)=O)c(C3CC3)cc12` [HCV-796], the hepatic toxicity entry with HCV [4] (extended dosing of the combination regimens) is “hepatic toxicity observed”. In addition, the “HCV RNA levels in patients” value with HCV [4] (patients, transient as single agent, more robust with interferon and ribavirin) is reported as “reduce HCV RNA levels”.

Consider `CNC(=O)c1c(-c2ccc(F)cc2)oc2ccc(-c3cc(C(=O)NC4(c5ncccn5)CC(O)C4)c(OC)cc3C)c(F)c12` (single isomer, unassigned) [Example 12b, 4-Fluoro-2-(4-fluorophenyl)-5-(5-((3-hydroxy-1-(pyrimidin-2-yl)cyclobutyl)carbamoyl)-4-methoxy-2-methylphenyl)-N-methylbenzofuran-3-carboxamide], for which the EC50 in series [2] was 140 nM. In series [3], the concentration for half-maximal inhibition (IC50) was 210 nM.

In series [2], `CNC(=O)c1c(-c2ccc(F)cc2)oc2cc(CCC(F)(F)F)c(-c3ccc(OC)c(C(=O)NC4(c5ncccn5)CC(OC(F)(F)F)C4)c3)cc12` (single isomer, unassigned) [Example 47b, 2-(4-Fluorophenyl)-5-(4-methoxy-3-((1-(pyrimidin-2-yl)-3-(trifluoromethoxy)cyclobutyl)carbamoyl)phenyl)-N-methyl-6-(3,3,3-trifluoropropyl)benzofuran-3-carboxamide] registered a concentration for a half-maximal effect (EC50) of 10 nM. This compound yielded a 50% inhibitory concentration (IC50) in series [3] of 10 nM.

The values above are taken from patent US11161837B2, “Benzofuran derivatives for the treatment of hepatitis C” (BRISTOL-MYERS SQUIBB COMPANY, priority 2016, dated 2021).
